Assay results: the supplement of paper PMC10307832

Columns and labels:
Assay in all cases: relative viability (nuclei count vs DMSO), 5 days (fraction); higher = more cells survive
BEN = tested on: BEN
Outline: (§1)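 Values are medians from duplicate plates. Each reflects relative viability, defined as the nuclei count of treated wells over that of vehicle wells. Lung cancer cell lines in 1536-well plates were pin-tool dosed one day after seeding with one drug alone or with a fixed anchor-drug dose plus five library-drug doses (not always all listed) in √10 steps, then fixed, stained and imaged at 4× after 5 days.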

EKVX = tested on: EKVX
Outline: as §1

NCI-H1792 = tested on: NCI-H1792
Outline: as §1

LCLC-97TM1 = tested on: LCLC-97TM1
Outline: as §1

LOU-NH91 = tested on: LOU-NH91
Outline: as §1

NCI-H727 = tested on: NCI-H727
Outline: as §1

SK-MES-1 = tested on: SK-MES-1
Outline: as §1

HCC-827 = tested on: HCC-827
Outline: as §1

RERF-LC-KJ = tested on: RERF-LC-KJ
Outline: as §1

LK-2 = tested on: LK-2
Outline: as §1

EMC-BAC-2 = tested on: EMC-BAC-2
Outline: as §1

COR-L 105 = tested on: COR-L 105
Outline: as §1

SW 900 = tested on: SW 900
Outline: as §1

NCI-H358 = tested on: NCI-H358
Outline: as §1

NCI-H1944 = tested on: NCI-H1944
Outline: as §1

NCI-H2126 = tested on: NCI-H2126
Outline: as §1

EPLC-272H = tested on: EPLC-272H
Outline: as §1

NCI-H1650 = tested on: NCI-H1650
Outline: as §1

NCI-H2087 = tested on: NCI-H2087
Outline: as §1

NCI-H1734 = tested on: NCI-H1734
Outline: as §1

SW 1573 = tested on: SW 1573
Outline: as §1

NCI-H522 = tested on: NCI-H522
Outline: as §1

HCC-78 = tested on: HCC-78
Outline: as §1

LU99A = tested on: LU99A
Outline: as §1

`CCCCCCCCCCCC1=C(O)C(=O)C=C(O)C1=O` [Embelin] + Nc1ncn([C@H]2C[C@H](O)[C@@H](CO)O2)c(=O)n1 [Decitabine] (partner 2 µM) showed a relative viability (BEN; first compound 0.08 µM) of 0.717, a relative viability (BEN; first compound 0.8 µM) of 0.813 and a relative viability (BEN; first compound 2.53 µM) of 0.812. It also gave a relative viability (BEN; first compound 8 µM) of 0.559, a relative viability (EKVX; first compound 0.08 µM) of 0.41 and a relative viability (EKVX; first compound 0.8 µM) of 0.4. The relative viability (EKVX; first compound 2.53 µM) was 0.314, the relative viability (EKVX; first compound 8 µM) was 0.313 and the relative viability (NCI-H1792; first compound 0.08 µM) was 0.603. The relative viability (NCI-H1792; first compound 0.8 µM) was 0.595, the relative viability (NCI-H1792; first compound 2.53 µM) was 0.615 and the relative viability (NCI-H1792; first compound 8 µM) was 0.519. The relative viability (LCLC-97TM1; first compound 0.08 µM) was 0.241, the relative viability (LCLC-97TM1; first compound 0.8 µM) was 0.264 and the relative viability (LCLC-97TM1; first compound 2.53 µM) was 0.266. For the same compound, the relative viability (LCLC-97TM1; first compound 8 µM) was 0.235, the relative viability (LOU-NH91; first compound 0.08 µM) was 0.825 and the relative viability (LOU-NH91; first compound 0.8 µM) was 0.893. It also gave a relative viability (LOU-NH91; first compound 2.53 µM) of 0.852, a relative viability (LOU-NH91; first compound 8 µM) of 0.801 and a relative viability (NCI-H727; first compound 0.08 µM) of 1.02. It also gave a relative viability (NCI-H727; first compound 0.8 µM) of 0.96, a relative viability (NCI-H727; first compound 2.53 µM) of 1.14 and a relative viability (NCI-H727; first compound 8 µM) of 0.916. The relative viability (SK-MES-1; first compound 0.08 µM) was 0.436, the relative viability (SK-MES-1; first compound 0.8 µM) was 0.396 and the relative viability (SK-MES-1; first compound 2.53 µM) was 0.361. It also gave a relative viability (SK-MES-1; first compound 8 µM) of 0.266, a relative viability (HCC-827; first compound 0.08 µM) of 0.336 and a relative viability (HCC-827; first compound 0.8 µM) of 0.333. The relative viability (HCC-827; first compound 2.53 µM) was 0.38, the relative viability (HCC-827; first compound 8 µM) was 0.355 and the relative viability (RERF-LC-KJ; first compound 0.08 µM) was 0.775. For the same compound, the relative viability (RERF-LC-KJ; first compound 0.8 µM) was 0.652, the relative viability (RERF-LC-KJ; first compound 2.53 µM) was 0.774 and the relative viability (RERF-LC-KJ; first compound 8 µM) was 0.514. The relative viability (LK-2; first compound 0.08 µM) was 0.287, the relative viability (LK-2; first compound 0.8 µM) was 0.348 and the relative viability (LK-2; first compound 2.53 µM) was 0.406. It also gave a relative viability (LK-2; first compound 8 µM) of 0.332, a relative viability (EMC-BAC-2; first compound 0.08 µM) of 0.945 and a relative viability (EMC-BAC-2; first compound 0.8 µM) of 1.01. The relative viability (EMC-BAC-2; first compound 2.53 µM) was 0.958, the relative viability (EMC-BAC-2; first compound 8 µM) was 0.955 and the relative viability (COR-L 105; first compound 0.08 µM) was 0.676. It also gave a relative viability (COR-L 105; first compound 0.8 µM) of 0.715, a relative viability (COR-L 105; first compound 2.53 µM) of 0.657 and a relative viability (COR-L 105; first compound 8 µM) of 0.751. The relative viability (SW 900; first compound 0.08 µM) was 0.449, the relative viability (SW 900; first compound 0.8 µM) was 0.402 and the relative viability (SW 900; first compound 2.53 µM) was 0.466. For the same compound, the relative viability (SW 900; first compound 8 µM) was 0.454, the relative viability (NCI-H358; first compound 0.08 µM) was 0.2 and the relative viability (NCI-H358; first compound 0.8 µM) was 0.233. The relative viability (NCI-H358; first compound 2.53 µM) was 0.23, the relative viability (NCI-H358; first compound 8 µM) was 0.221 and the relative viability (NCI-H1944; first compound 0.08 µM) was 0.436. For the same compound, the relative viability (NCI-H1944; first compound 0.8 µM) was 0.406, the relative viability (NCI-H1944; first compound 2.53 µM) was 0.5 and the relative viability (NCI-H1944; first compound 8 µM) was 0.443. It also gave a relative viability (NCI-H2126; first compound 0.08 µM) of 0.514, a relative viability (NCI-H2126; first compound 0.8 µM) of 0.519 and a relative viability (NCI-H2126; first compound 2.53 µM) of 0.589. For the same compound, the relative viability (NCI-H2126; first compound 8 µM) was 0.513, the relative viability (EPLC-272H; first compound 0.08 µM) was 0.363 and the relative viability (EPLC-272H; first compound 0.8 µM) was 0.401. It also gave a relative viability (EPLC-272H; first compound 2.53 µM) of 0.355, a relative viability (EPLC-272H; first compound 8 µM) of 0.367 and a relative viability (NCI-H1650; first compound 0.08 µM) of 0.354. It also gave a relative viability (NCI-H1650; first compound 0.8 µM) of 0.362, a relative viability (NCI-H1650; first compound 2.53 µM) of 0.457 and a relative viability (NCI-H1650; first compound 8 µM) of 0.384. It also gave a relative viability (NCI-H2087; first compound 0.08 µM) of 0.278, a relative viability (NCI-H2087; first compound 0.8 µM) of 0.295 and a relative viability (NCI-H2087; first compound 2.53 µM) of 0.361. The relative viability (NCI-H2087; first compound 8 µM) was 0.225, the relative viability (NCI-H1734; first compound 0.08 µM) was 0.514 and the relative viability (NCI-H1734; first compound 0.8 µM) was 0.56. It also gave a relative viability (NCI-H1734; first compound 2.53 µM) of 0.56, a relative viability (NCI-H1734; first compound 8 µM) of 0.516 and a relative viability (SW 1573; first compound 0.08 µM) of 0.422. For the same compound, the relative viability (SW 1573; first compound 0.8 µM) was 0.674, the relative viability (SW 1573; first compound 2.53 µM) was 0.654 and the relative viability (SW 1573; first compound 8 µM) was 0.456. It also gave a relative viability (NCI-H522; first compound 0.08 µM) of 0.647, a relative viability (NCI-H522; first compound 0.8 µM) of 0.617 and a relative viability (NCI-H522; first compound 2.53 µM) of 0.578. For the same compound, the relative viability (NCI-H522; first compound 8 µM) was 0.704, the relative viability (HCC-78; first compound 0.08 µM) was 0.739 and the relative viability (HCC-78; first compound 0.8 µM) was 0.751. It also gave a relative viability (HCC-78; first compound 2.53 µM) of 0.71, a relative viability (HCC-78; first compound 8 µM) of 0.675 and a relative viability (LU99A; first compound 0.08 µM) of 1.01. It also gave a relative viability (LU99A; first compound 0.8 µM) of 1.08, a relative viability (LU99A; first compound 2.53 µM) of 0.942 and a relative viability (LU99A; first compound 8 µM) of 0.91.
